Measured values as given in patent publication US9333205B2, “Isoxazolo-quinazolines as modulators of protein kinase activity” (NERVIANO MEDICAL SCIENCES S.R.L., priority 2010, dated 2016).

What was measured:
[1] = target: MPS1 (Homo sapiens (Human), UniProt P33981); assay: Biochemical trans-phosphorylation (Dowex, 33P-γ-ATP) assay for inhibitors of MPS1 kinase activity; conditions: MPS1 5 nM, 15 microM ATP, P38-βtide 200 microM
Excerpt: Cloning, Expression and Purification of Recombinant MPS1 Full Length Protein.
MPS1 full length (corresponding to residues 2-857 of the full length sequence, see Swiss-Prot accession number P33981) was PCR amplified from the full-length human MPS1 gene present in house as clone pGEX4t_MPS1.
Baculoviruses were generated by cotransfecting Sf9 insect cells with the expression vector and the viral DNA using the BaculoGold® transfection kit (Pharmingen). Viral supernatant was recovered after 5 days and subjected to 3 rounds of amplification to increase viral titer. Recombinant protein was produced by infecting High5 insect cells. After 72 hours of infection at 21° C., cells were recovered, pelletted and freezed at −80° C. For purification of recombinant protein, pellet was thawed, resuspended in lysis buffer (PBS, NaCl 150 mM, Glycerol 10%, CHAPS 0.1%, DTT 20 mM, protease and phosphatase inhibitors) and lysed by Gaulin. Lysate was cleared by centrifugation and loaded on a GST affinity column. After extensive wash, recombinant protein was cleaved by a specific protease and eluted by incubation.
To get a fully activated enzyme, the protein was then subjected to auto-phosphorylation in presence of ATP 1 mM at 25° C. for 2 hours in kinase buffer (Hepes pH7.5 50 mM, MgCl2 2.5 mM, MnCl2 1 mM, DTT 1 mM, phosphatase inhibitors); ATP was then removed whit a desalting column.
(§1) Biochemical Assay for Inhibitors of MPS1 and PERK Kinase Activity
(§2) The inhibitory activity of putative kinase inhibitors and the potency of selected compounds were determined using a trans-phosphorylation assay.
Specific peptide or protein substrates are trans-phosphorylated by their specific ser-thr or tyr kinase in the presence of ATP traced with ^33P-γ-ATP, and in the presence of their own optimal buffer and cofactors. […]
Supernatant is subsequently withdrawn and transferred into a counting plate, then evaluated by β-counting. […]

[2] = target: PERK (Homo sapiens (Human), UniProt Q9NZJ5); assay: Biochemical trans-phosphorylation (Dowex, 33P-γ-ATP) assay for inhibitors of PERK kinase activity; conditions: PERK 8 nM, 52 microM ATP, eIF2alfa-tide 300 microM
PERK, sequence (Q9NZJ5 540-1115): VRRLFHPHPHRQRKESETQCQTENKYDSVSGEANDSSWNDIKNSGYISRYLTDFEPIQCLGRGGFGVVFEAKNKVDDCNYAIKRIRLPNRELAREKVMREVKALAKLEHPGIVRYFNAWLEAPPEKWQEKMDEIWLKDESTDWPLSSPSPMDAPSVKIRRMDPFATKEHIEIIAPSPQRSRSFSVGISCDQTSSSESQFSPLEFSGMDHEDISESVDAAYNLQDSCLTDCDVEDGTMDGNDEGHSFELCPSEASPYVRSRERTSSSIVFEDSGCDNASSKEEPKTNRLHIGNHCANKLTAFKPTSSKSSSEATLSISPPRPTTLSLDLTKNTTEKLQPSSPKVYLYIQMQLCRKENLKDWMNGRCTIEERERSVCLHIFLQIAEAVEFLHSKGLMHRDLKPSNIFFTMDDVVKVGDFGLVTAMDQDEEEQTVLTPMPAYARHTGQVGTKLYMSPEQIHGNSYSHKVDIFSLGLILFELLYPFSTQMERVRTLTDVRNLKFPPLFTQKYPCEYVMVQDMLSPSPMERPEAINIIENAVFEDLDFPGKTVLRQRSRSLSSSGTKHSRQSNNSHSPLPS
Procedure: Cloning, Expression and Purification of Recombinant PERK Cytoplasmic Domain Protein.
PERK cytoplasmic domain (corresponding to residues 540-1115; Swiss-Prot accession number Q9NZJ5) was PCR amplified using the following forward oligonucleotide:
Recombinant protein was produced in BL21(DE3)pLysS strain, in auto-induction medium, at 21° C. for 24 hours (see F. W. Studier, “Protein production by auto-induction in high density shaking cultures”, Protein Expression and Purification (2005) vol. 41:207-234). The cells were recovered by centrifugation, and the pellet frozen at −80° C. For purification of recombinant protein, pellet was thawed, resuspended in lysis buffer (Tris-HCl 50 mM pH 7.6, NaCl 250 mM, Glycerol 10%, CHAPS 0.2%, Imidazole 5 mM, protease and phosphatase inhibitors) and lysed by Gaulin homogenizer. Lysate was cleared by centrifugation and loaded on a Ni-NTA and the eluate on a GST affinity column. After extensive wash, recombinant protein was cleaved by a specific protease and eluted. Recombinant PERK cytoplasmic domain obtained by this protocol was >85% pure by coomassie stained SDS-PAGE.
as §1, §2
Specific peptide or protein substrates are trans-phosphorylated by their specific ser-thr or tyr kinase in the presence of ATP traced with ^33P-γ-ATP, and in the presence of their own optimal buffer and cofactors.
At the end of the phosphorylation reaction, more than 98% unlabeled ATP and radioactive ATP is captured by an excess of the ion exchange dowex resin; the resin then settles down to the bottom of the reaction plate by gravity.
Supernatant is subsequently withdrawn and transferred into a counting plate, then evaluated by β-counting.
The buffer for PERK assay was composed of HEPES 50 mM, at pH 7.5 with 3 mM MgCl2, 1 mM DTT, 3 microM Na3VO4, and 0.2 mg/mL BSA […]

MPS1, sequence (P33981 2-857): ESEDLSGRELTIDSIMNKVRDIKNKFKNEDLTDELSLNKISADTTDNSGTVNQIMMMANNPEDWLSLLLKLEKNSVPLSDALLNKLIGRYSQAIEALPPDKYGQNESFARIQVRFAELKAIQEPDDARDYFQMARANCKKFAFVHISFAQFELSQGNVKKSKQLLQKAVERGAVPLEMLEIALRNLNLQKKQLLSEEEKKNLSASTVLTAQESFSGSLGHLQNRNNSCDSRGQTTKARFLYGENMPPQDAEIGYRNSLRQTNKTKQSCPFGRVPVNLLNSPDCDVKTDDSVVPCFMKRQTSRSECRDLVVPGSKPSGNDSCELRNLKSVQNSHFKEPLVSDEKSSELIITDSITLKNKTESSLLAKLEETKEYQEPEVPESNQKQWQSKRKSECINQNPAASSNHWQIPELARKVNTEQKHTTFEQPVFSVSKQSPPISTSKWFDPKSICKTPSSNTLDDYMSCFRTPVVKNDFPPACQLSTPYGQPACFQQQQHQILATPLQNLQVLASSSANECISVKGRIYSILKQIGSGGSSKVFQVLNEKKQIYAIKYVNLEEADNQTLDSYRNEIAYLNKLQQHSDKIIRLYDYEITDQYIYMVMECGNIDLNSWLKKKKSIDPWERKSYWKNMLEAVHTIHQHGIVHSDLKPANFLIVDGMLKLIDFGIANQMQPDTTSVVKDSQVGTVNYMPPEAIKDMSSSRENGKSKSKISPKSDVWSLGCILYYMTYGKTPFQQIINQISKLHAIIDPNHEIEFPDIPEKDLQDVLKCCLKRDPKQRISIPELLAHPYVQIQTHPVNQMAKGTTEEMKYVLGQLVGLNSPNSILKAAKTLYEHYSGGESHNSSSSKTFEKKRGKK

SMILES | IC50 [1] [µM] | IC50 [2] [µM]
COc1cc(C(=O)NC2CCN(C)CC2)ccc1Nc1ncc2c(n1)-c1noc(C(N)=O)c1C(C)(C)C2 [Compound 30, 8-({2-methoxy-4-[(1-methylpiperidin-4-yl)carbamoyl]phenyl}amino)-4,4-dimethyl-4,5-dihydroisoxazolo[4,3-h]quinazoline-3-carboxamide] | 0.68 | 0.4
COc1cc(C(=O)NC2CCN(C)CC2)ccc1Nc1ncc2c(n1)-c1onc(C(N)=O)c1CC2(C)C [Compound 55, 8-({2-methoxy-4-[(1-methylpiperidin-4-yl)carbamoyl]phenyl}amino)-5,5-dimethyl-4,5-dihydroisoxazolo[4,5-h]quinazoline-3-carboxamide] | 3.44 | 0.51
COc1cc(C(=O)NC2CCN(C)CC2)ccc1Nc1ncc2c(n1)-c1onc(C(=O)N[C@@H](CN)c3ccccc3)c1CC2(C)C [Compound 61, N-[(1R)-2-amino-1-phenylethyl]-8-({2-methoxy-4-[(1-methylpiperidin-4-yl)carbamoyl]phenyl}amino)-5,5-dimethyl-4,5-dihydroisoxazolo[4,5-h]quinazoline-3-carboxamide] | 0.36 | 0.24
